This note sets out measurements from patent US7563764B2, “Antimicrobial peptides based on tripeptide repeats” (E. I. du Pont de Nemours and Company, priority 2004, dated 2009).

One may read the MIC as the lowest concentration that inhibits growth of the organism.

No end group written: not given here.

This assay concerns E. coli ATCC 25922. It counts as cell-based, Escherichia coli. The conditions noted are these: ATCC 25922, 24 h. The method, then:
The term “MIC” refers to minimal inhibitory concentration and will be defined as the lowest concentration of either soluble peptide or peptide immobilized on a polymer that results in total kill of bacteria.
The minimal inhibitory concentration (MIC) for the peptides was determined in sterile microtiter plates in a final volume of 200 μL using Trypticase Soy Broth (TSB; Difco Laboratories, Detroit, Mich.) as the growth medium. Serial two-fold dilutions of the peptide stock were made in the plate wells such that concentrations ranged from 512 to 2 μg/mL in a volume of 100 μL. Each well was then inoculated with 100 μL of a dilute suspension of bacteria in TSB yielding a final concentration of 1×10^4 bacteria/mL. The final peptide concentrations ranged from […]. The assay plates were incubated at 37° C. for 24 hours inside a Bioscreen C microtitre plate reader (Thermo Labsystems; Vantaa, Finland). Optical Density (OD) of the medium at 600 nm was recorded every 20 minutes to monitor cell growth. The lowest concentration of peptide preventing bacterial growth during the 24 hr period was defined as the MIC.
Sequence “LKVLKVLKVLKVLKV [SEQ ID NO: 2, LKVLKVLKVLKVLKV]” gave an MIC of 32 µg/mL.

Consider “LKVLKVLKVLKVLKVLKV [SEQ ID NO: 3, LKVLKVLKVLKVLKVLKV]”, for which the MIC was determined as 4 µg/mL.

“LKALKALKALKALKR [SEQ ID NO: 1, LKALKALKALKALKR]” yielded an MIC of 64 µg/mL.

Regarding “FKAFKAFKAFKAFKAFKA [SEQ ID NO: 5, FKAFKAFKAFKAFKAFKA]”, the MIC turned out to be 32 µg/mL.

Sequence “FKAFKAFKAFKAFKA [SEQ ID NO: 4, FKAFKAFKAFKAFKA]” gave an MIC of 128 µg/mL.
